According to patent US11441195B2, “Energetic cancer stem cells (e-CSCs): a new hyper-metabolic and proliferative tumor cell phenotype, driven by mitochondrial energy” (LUNELLA BIOTECH, INC., priority 2018, dated 2022):

Columns and labels:
[1] = test system: 3D tumor sphere formation; conditions: cited from earlier work
MCF7 cells [2] = assay: Mammosphere formation assay (3D-spheroids); type: cell-based, human; conditions: for mammosphere formation in MCF7 cells: dose-dependent (0, 50 and 100 nM), FIG. 8A
Description: Mammosphere formation assay (for generating 3D-spheroids): A single-cell suspension was prepared using enzymatic, and manual disaggregation (25 gauge needle). […] After 5 days of culture, 3D-spheres >50 μm were counted using an eye piece (“graticule”), and the percentage of cells plated which formed spheres was calculated and is referred to as percent mammosphere formation, and was normalized to one (1=100% MSF). Mammosphere formation efficiency was analyzed in both the “low” and “high” sub-populations of auto-fluorescent cells, generated from either 2D-monolayers (M-L vs. M-H) or 3D-spheroids (S-L vs. S-H). All mammosphere experiments were performed in triplicate, at least 3 times independently.

[3] = test system: S-H cells (MCF7 3D-spheroids); assay: S-H cell sub-population in MCF7 3D-spheroids after treatment (auto-fluorescence flow-cytometry); type: cell-based, human; conditions: for change in S-H cells: control to 100 nM, FIG. 8B/8C
Description: FIG. 8A is a bar graph showing mammosphere formation in MCF7 cells at various concentrations of DPI, and including Ribociclib at 100 nM. […] Most importantly, e-CSCs derived from 3D-spheroids are highly oxidative and can be effectively targeted with an OXPHOS inhibitor. Non-limiting examples of other OXPHOS inhibitors that may be used in the present approach include atovaquone, irinotecan, sorafenib, niclosamide, and berberine chloride.
Data were analyzed with FlowJo 10.1 software.
For 3D-spheroid suspensions, after 5 days of growth under low-attachment condition, the spheres were collected from six 225 cm2 flasks pre-coated with poly-HEMA and gently centrifuged at 100 g for 5 min. After centrifugation, 1 ml of 0.025% of trypsin was added to the “sphere-pellet” and incubated them at 37° C. for 5 minutes. Using a 25-gauge needle, the sphere-suspension was passed through the syringe 4 times. […] After creating these single-cell suspensions, they were subjected to standard flow-cytometry (using the SONY SH800 Cell Sorter) to isolate the auto-fluorescent cell sub-populations, as indicated above. Examples of flow-cytometry plots are included in the figures, and the gating strategy is shown.

[4] = breast cancer patients; cited from earlier work
[5] = test system: M-H cells from MCF7 monolayers
MCF7 monolayers = conditions: after 130 hours of DPI treatment, FIG. 7C
Description: The data represents 100,000 cells after 120 hours of DPI treatment.
Vital mitochondrial staining: Cells were trypsinized and re-suspended into a 1×10^6 cell/ml solution in PBS. 10 nM of MitoTracker Deep-Red (Thermo Fisher Scientific) was added for 30 minutes at 37° C. before centrifugation and re-suspension in PBS Ca/Mg for FACS analysis (ATTUNE NxT) or Cell Sorting (SONY SH 800). All subsequent steps were performed in the dark. Data analysis was performed using FlowJo software.

MCF7 cells [6] = conditions: cited from earlier work

For COc1ccc([C@@H]2CC(=O)c3c(O)cc(O[C@@H]4O[C@H](COC(=O)CC(C)(O)CC(=O)O)[C@@H](O)[C@H](O)[C@H]4O[C@@H]4O[C@@H](C)[C@H](O)[C@@H](O)[C@H]4O)cc3O2)cc1O (stereo partly shown) [brutieridin], the “3D tumor sphere formation” value [1] is listed as “successfully blocked”.
In the case of COc1nc2ccc(Br)cc2cc1[C@@H](c1ccccc1)[C@@](O)(CCN(C)C)c1cccc2ccccc12 [bedaquiline], the “3D tumor sphere formation” value [1] is listed as “successfully blocked”.
In the case of CN(C)C(=O)c1cc2cnc(Nc3ccc(N4CCNCC4)cn3)nc2n1C1CCCC1 [Ribociclib], the “mammosphere formation in MCF7 cells” value (MCF7 cells [2]) is reported as “inhibited”, the “propagation of S-H cells” value ([3]; FIGS. 8A-C) is reported as “effectively inhibits” and the “change in S-H cells” value [3] is reported as “decreasing”. For the same molecule, the most common side-effects [4] was “neutropenia, anemia and GI-distress”.
In the case of CC[C@H]1OC(=O)[C@H](C)[C@@H](O[C@H]2C[C@@](C)(OC)[C@@H](O)[C@H](C)O2)[C@H](C)[C@@H](O[C@@H]2O[C@H](C)C[C@H](N(C)C)[C@H]2O)[C@](C)(O)C[C@@H](C)CN(C)[C@H](C)[C@@H](O)[C@]1(C)O [azithromycin], the “3D tumor sphere formation” value [1] is listed as “successfully blocked”.
In the case of CC[C@H]1/C=C/C=C/C[C@@H](C)[C@H](O)[C@@](C)(O)C(=O)[C@@H](C)[C@H](O)[C@@H](C)C(=O)[C@@H](C)[C@H](O)[C@@H](C)/C=C/C(=O)O[C@@H]2[C@H](C)[C@H](CC1)O[C@]1(CC[C@H](C)[C@H](C[C@@H](C)O)O1)[C@H]2C [oligomycin], the “3D tumor sphere formation” value [1] is listed as “successfully blocked”.
With [Cl-].c1ccc2c(c1)[I+]c1ccccc1-2 [DPI, Diphenyleneiodonium chloride] the “3D-spheroid formation in MCF7 cells” value (MCF7 cells [2]) was “inhibits”, the 3D-mammosphere formation (MCF7 cells [2]; 100 nM) was “almost completely inhibited” and the “mammosphere formation in MCF7 cells” value (MCF7 cells [2]) was “inhibited”. The “depletion of S-H cells in anchorage-independent single live cells” value ([3]; 100 nM) was ~60%, the “change in S-H cells” value [3] was “decreasing” and the “increase in the number of M-H cells” value ([5]; 100 nM DPI, 2D-monolayer cultures, 5-day period) was ~7.5 fold. The “percentage of M-H cells after treatment” value ([5]; 5-day period (120 hours), concentration dependent, FIG. 7B) was “increased”, the “mitochondrial mass (MitoTracker)” value (MCF7 monolayers) was “increased” and the mitochondrial function (MCF7 cells [6]) was “selectively inhibits”. For the same molecule, the toxic side effects (MCF7 cells [6]) was “without any toxic side effects”, the “changes in cell viability or apoptosis” value (MCF7 cells [6]; prior studies) was “did not induce changes” and the metabolic phenotype shift (MCF7 cells [6]; prior studies) was “shifted the cells towards a more glycolytic phenotype”.
In the case of Cc1n[nH]c(C)c1Cc1sc2c(c1C(=O)N1C[C@H](O)CO1)c(=O)n(C)c(=O)n2CC(C)C [AR-C155858], the “3D tumor sphere formation” value [1] is listed as “successfully blocked”.
For COc1ccc2cc3[n+](cc2c1OC)CCc1cc2c(cc1-3)OCO2 [berberine], the “3D tumor sphere formation” value [1] is given as “successfully blocked”.
For CCCCC[C@H](CC(=O)NO)C(=O)N[C@H](C(=O)N1CCC[C@H]1CO)C(C)C [actinonin], the “3D tumor sphere formation” value [1] is listed as “successfully blocked”.
For C[C@@H]1O[C@@H](O[C@@H]2[C@@H](Oc3cc(O)c4c(c3)O[C@H](c3ccc(O)cc3)CC4=O)O[C@@H](COC(=O)C[C@@](C)(O)CC(=O)O)[C@H](O)[C@H]2O)[C@@H](O)[C@H](O)[C@H]1O [melitidin], the “3D tumor sphere formation” value [1] is listed as “successfully blocked”.
For CN(C)c1cc(NC(=O)CNC(C)(C)C)c(O)c2c1C[C@H]1C[C@H]3[C@H](N(C)C)C(O)=C(C(N)=O)C(=O)[C@@]3(O)C(O)=C1C2=O [tigecycline], the “3D tumor sphere formation” value [1] is given as “successfully blocked”.
